In patent US20050137243A1, “Antagonists of melanin concentrating hormone effects on the melanin concentrating hormone receptor” (priority 2003, published 2005):

Key:
[1] = Efficacy: % weight loss in diet-induced obese (DIO) mice after two weeks of dosing; format: in vivo; conditions: 100 mpk BID, PO, relative to vehicle control animals
[2] = Pharmacokinetic drug levels in whole brain after oral dose in DIO-mice; format: in vivo; conditions: 10 mpk PO, 0.5-24 h

Brain Conc. AUC [2]: 1428 ng·h/g
Compound: O=C(Nc1ccc(Oc2ccccc2)cc1)Nc1ccc2c(cnn2CCN2CCCC2)c1 [Example 24, N-(4-phenoxyphenyl)-N′-[1-(2-pyrrolidin-1-ylethyl)-1H-indazol-5-yl]urea]
DIO Mice % weight loss @ 14 days [1]: 15%
